Assay results published in patent US20230210857A1, “RESPIRATORY STIMULANT PARENTERAL FORMULATIONS” (Enalare Therapeutics Inc., priority 2021, published 2023).

Assays:
[1] = pH solubility study (100 mM citric acid, shaken overnight at room temperature, HPLC assay); type: physicochemical
Protocol: A pH solubility study was performed to assess the feasibility of formulating the active agent (N-(4,6-Bis-n-propylamino-[1,3,5]triazin-2-yl)-O,N-dimethyl-hydroxylamine) as a simple buffered solution at a reasonable pH for an IV formulation.
Methodology: The active agent (N-(4,6-Bis-n-propyl amino-[1,3,5]triazin-2-yl)-O,N-dimethyl-hydroxylamine) and H2SO4 solution of concentration ˜107 mg/mL in 100 mM citric acid at pH 2.5 was prepared. About 150 μL aliquots of this solution were transferred into 6 separate glass HPLC vials. All the samples, including the solution at pH 2.5, were shaken overnight at room temperature using a gyratory shaker. After shaking, the samples were evaluated visually for the presence of precipitate and were then spin filtered through 0.45 μm syringe tip filters (4 mm diameter) at 3000 rpm for 20 min. The final pH values of the filtrates were measured. The filtrates were then diluted appropriately and analyzed for the active agent (N-(4,6-Bis-n-propylamino-[1,3,5]triazin-2-yl)-O,N-dimethyl-hydroxylamine). H2SO4 concentration using the HPLC assay.
Results: The pH values of the samples prior to and after shaking overnight, appearance as well as concentrations of samples are shown in Table 12.

[2] = Three-phase pharmacokinetics (PK) study in minipigs, single IV and IM doses; conditions: male, Gottingen, minipig, in vivo; for AUC(0-inf): AUCINF; for AUC(0-t): AUClast; for half-life: T1/2
Protocol: The study consisted of conducting a bioequivalence (BE) study in minipigs. Two formulations of a Compound having Formula (I) (N-(4,6-Bis-n-propylamino-[1,3,5]triazin-2-yl)-O,N-dimethyl-hydroxylamine) were tested in the study as follows:
For IV administration, minipigs (n=3) received a single IV bolus (1-2 minutes) administration of the Compound having Formula (I) (N-(4,6-Bis-n-propylamino-[1,3,5]triazin-2-yl)-O,N-dimethyl-hydroxylamine) via VAP (vascular access port) at the jugular vein. For IM administration, minipigs (n=3) received a single IM administration of Compound having Formula (I) (N-(4,6-Bis-n-propylamino-[1,3,5]triazin-2-yl)-O,N-dimethyl-hydroxylamine) via the lateral neck muscle (behind the ear). The animals were dosed before noon on dosing days. The routes allowed for the determination of pharmacokinetics of Compound having Formula (I) (N-(4,6-Bis-n-propylamino-[1,3,5]triazin-2-yl)-O,N-dimethyl-hydroxylamine) from IV and IM administration.
A PK study was conducted in male Gottingen minipigs (n=3), which were administered in a single IV and subsequent IM doses using the dosing scheme outlined in Table 25. There was a minimum of 3 day washout period between dose events.
The mean dose for IV dose Group 1 was 4.79+/−0.012 mg/kg. The mean dose for IM dose Group 2 was 4.82+/−0.036 mg/kg. The mean dose for IM dose Group 3 was 4.79+/−0.033 mg/kg. All through groups nominal doses were 4.8 mg/kg. These does were based on the nominal concentrations of the Compound having Formula (I) (N-(4,6-Bis-n-propylamino-[1,3,5]triazin-2-yl)-O,N-dimethyl-hydroxylamine) in the dose formulations (purity, water, and salt content corrected).
For IV administration, minipigs (n=3) received a single IV bolus (1-2 minutes) administration of Compound having Formula (I) (N-(4,6-Bis-n-propylamino-[1,3,5]triazin-2-yl)-O,N-dimethyl-hydroxylamine) via a Vascular access port (VAP) in the jugular vein. For IM administration, minipigs (n=3) received a single IM administration of each IM formulation via the lateral neck muscle (behind the ear). For each dose event, blood samples were collected at 8 time points: 0.083, 0.167, 0.25, 0.5, 1, 2, 4 and 24 hours post dose. General observations were conducted twice-daily for any treatment-related effects/toxicity and/or tolerability. Table 26 includes the Plasma Concentration Descriptive Statistics of Compound having Formula (I) (N-(4,6-Bis-n-propylamino-[1,3,5]triazin-2-yl)-O,N-dimethyl-hydroxylamine). Table 27 illustrates the plasma concentration pharmacokinetic parameters of Compound having Formula (I) (N-(4,6-Bis-n-propylamino-[1,3,5]triazin-2-yl)-O,N-dimethyl-hydroxylamine).
The plasma concentration descriptive statistics of the compound having Formula (I) (N-(4,6-Bis-n-propyl amino-[1,3,5]triazin-2-yl)-O,N-dimethyl-hydroxyl amine) are presented in Table 28.
The T1/2 values were 3.0 hours for IV Group 1 and 3.2 hours and 2.7 hours for IM Groups 2 and 3, respectively.
For each dose level, Cmax was higher for IV dosing than for IM dosing whereas AUClast was higher for IM dosing than for IV dosing.
The IV and IM bioavailability of a Compound having Formula (I) (N-(4,6-Bis-n-propylamino-[1,3,5]triazin-2-yl)-O,N-dimethyl-hydroxylamine) is presented in Table 30.
The IV formulation single injection yielded higher Cmax and shorter time to Cmax(Tmax). […] From the present pharmacokinetic study, it is believed that IM Formulation 1 is a simple formulation with high solubility and shorter Tmax, while IM Formulation 2 has higher absorption in both rats and minipig.

[3] = iv, 4.8 mg/kg, Mean plasma concentration

In the case of `CCCNc1nc(NCCC)nc(N(C)OC)n1` [active agent, N-(4,6-Bis-n-propylamino-[1,3,5]triazin-2-yl)-O,N-dimethyl-hydroxylamine], the “Active Agent · H2SO4 Concentration” value ([1]; pH 2.42) was 104.1 mg/mL, the “Active Agent · H2SO4 Concentration” value ([1]; pH 3) was 99.8 mg/mL and the “Active Agent · H2SO4 Concentration” value ([1]; pH 3.51) was 101.6 mg/mL. For the same compound, the “Appearance after Shaking” value ([1]; target pH 2.5) was “Clear solution”, the “Appearance after Shaking” value ([1]; target pH 3.0) was “Clear solution” and the “Appearance after Shaking” value ([1]; target pH 3.5) was “Clear solution”. For the same compound, the “Appearance after Shaking” value ([1]; target pH 4.0) was “Precipitate”, the “Appearance after Shaking” value ([1]; target pH 4.5) was “Precipitate” and the “Appearance after Shaking” value ([1]; target pH 5.0) was “Precipitate”. The “Appearance after Shaking” value ([1]; target pH 5.5) was “Precipitate”, the bioavailability [2] was 117.2% and the bioavailability ([2]; Bioavailability) was 113%. For the same compound, the AUClast ([2]; im, 4.8 mg/kg) was 2711 ng·h/mL, the T1/2 ([2]; im, 4.8 mg/kg) was 2.7 h and the AUC(0-inf) ([2]; im, 4.8 mg/kg) was 2720 ng·h/mL. The AUC(0-t) ([2]; im, 4.8 mg/kg) was 2620 ng·h/mL, the Cmax ([2]; im, 4.8 mg/kg) was 466 ng/mL and the half-life ([2]; im, 4.8 mg/kg) was 3.2 h. The Tmax ([2]; im, 4.8 mg/kg) was 0.5 h, the AUC(0-inf) ([2]; iv, 4.8 mg/kg) was 2320 ng·h/mL and the AUC(0-t) ([2]; iv, 4.8 mg/kg) was 2310 ng·h/mL. The bioavailability ([2]; iv, 4.8 mg/kg, Bioavailability) was 100%, the Cmax ([2]; iv, 4.8 mg/kg) was 2820 ng/mL and the concentration at 0.083 hr [2, 3] was 2820 ng/mL. For the same compound, the concentration at 0.167 hr [2, 3] was 2010 ng/mL, the concentration at 0.25 hr [2, 3] was 1500 ng/mL and the concentration at 0.5 hr [2, 3] was 1020 ng/mL. The concentration at 1 hr [2, 3] was 519 ng/mL, the concentration at 2 hr [2, 3] was 186 ng/mL and the concentration at 4 hr [2, 3] was 40 ng/mL. It also gave a concentration at 24 hr [2, 3] of 0.8 ng/mL, a half-life ([2]; iv, 4.8 mg/kg) of 3 h and a Tmax ([2]; iv, 4.8 mg/kg) of 0.083 h.
